US20230373930A1, “AMINOIMIDAZOLE FPR2 AGONISTS” (BRISTOL-MYERS SQUIBB COMPANY, priority 2020, published 2023)

Columns and labels:
human FPR2 = biological target: T1, human FPR2 (Homo sapiens, UniProt P25090); assay: FPR2 cyclic adenosine monophosphate (cAMP) assay; format: cell-based; settings: CHO cells overexpressing human FPR2; forskolin 5 μM; inhibition of cAMP production; HTRF; read-out: hFPR2 cAMP2 EC50
T1 sequence (P25090 1-351): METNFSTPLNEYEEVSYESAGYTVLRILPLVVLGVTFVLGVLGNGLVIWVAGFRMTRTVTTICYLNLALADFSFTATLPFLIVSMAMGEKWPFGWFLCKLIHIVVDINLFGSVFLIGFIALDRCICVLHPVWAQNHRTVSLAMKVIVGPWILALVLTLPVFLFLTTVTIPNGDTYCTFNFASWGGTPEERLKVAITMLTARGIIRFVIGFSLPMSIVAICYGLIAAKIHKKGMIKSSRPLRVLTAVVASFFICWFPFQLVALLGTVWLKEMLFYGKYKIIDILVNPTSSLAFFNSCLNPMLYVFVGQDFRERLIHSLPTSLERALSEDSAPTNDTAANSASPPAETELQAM
Description: (§1) FPR2 and FPR1 Cyclic Adenosine Monophosphate (cAMP) Assays. A mixture of forskolin (5 μM final for FPR2 or 10 μM final for FPR1) and IBMX (200 μM final) were added to 384-well Proxiplates (Perkin-Elmer) pre-dotted with test compounds in DMSO (1% final) at final concentrations in the range of 0.020 nM to 100 μM. Chinese Hamster Ovary cells (CHO) overexpressing human FPR1 or human FPR2 receptors were cultured in F-12 (Ham's) medium supplemented with 10% qualified FBS, 250 μg/ml zeocin and 300 μg/ml hygromycin (Life Technologies). Reactions were initiated by adding 2,000 human FPR2 cells per well or 4,000 human FPR1 cells per well in Dulbecco's PBS (with calcium and magnesium) (Life Technologies) supplemented with 0.1% BSA (Perkin-Elmer). The reaction mixtures were incubated for 30 min at room temperature. The level of intracellular cAMP was determined using the HTRF HiRange cAMP assay reagent kit (Cisbio) according to manufacturer's instruction. Solutions of cryptate conjugated anti-cAMP and d2 flurorophore-labelled cAMP were made in a supplied lysis buffer separately. Upon completion of the reaction, the cells were lysed with equal volume of the d2-cAMP solution and anti-cAMP solution. After a 1-h room temperature incubation, time-resolved fluorescence intensity was measured using the Envision (Perkin-Elmer) at 400 nm excitation and dual emission at 590 nm and 665 nm. A calibration curve was constructed with an external cAMP standard at concentrations ranging from 1 μM to 0.1 μM by plotting the fluorescent intensity ratio from 665 nm emission to the intensity from the 590 nm emission against cAMP concentrations. The potency and activity of a compound to inhibit cAMP production was then determined by fitting to a 4-parametric logistic equation from a plot of cAMP level versus compound concentrations.

human FPR1 = biological target: T2, human FPR1 (Homo sapiens, UniProt P21462); assay: FPR1 cyclic adenosine monophosphate (cAMP) assay; format: cell-based; settings: CHO cells overexpressing human FPR1; forskolin 10 μM; inhibition of cAMP production; HTRF; read-out: hFPR1 cAMP2 EC50
T2 sequence (P21462 1-350): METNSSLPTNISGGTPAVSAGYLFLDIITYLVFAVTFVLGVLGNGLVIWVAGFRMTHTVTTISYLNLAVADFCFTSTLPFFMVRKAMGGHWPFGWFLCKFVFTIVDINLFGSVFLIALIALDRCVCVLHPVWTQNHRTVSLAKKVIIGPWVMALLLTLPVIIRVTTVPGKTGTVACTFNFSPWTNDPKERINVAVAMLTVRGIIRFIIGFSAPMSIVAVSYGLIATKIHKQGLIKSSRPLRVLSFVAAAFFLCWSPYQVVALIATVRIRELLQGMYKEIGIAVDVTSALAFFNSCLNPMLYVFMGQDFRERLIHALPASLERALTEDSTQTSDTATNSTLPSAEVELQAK
Description: as §1

Row | SMILES | EC50 (human FPR2) [µM] | EC50 (human FPR1) [µM]
1 | COc1cc(F)c(-n2cc(-c3ccc4ccccc4c3)nc2NC(=O)c2ccc(OC(F)F)cc2)c(F)c1 [Example 9, N-[1-(2,6-Difluoro-4-methoxyphenyl)-4-(naphthalen-2-yl)-1H-imidazol-2-yl]-4-(difluoromethoxy)benzamide] | 0.22 | 0.46
2 | COc1cc(F)c(-n2cc(Cc3ccccn3)nc2NC(=O)c2ccc(OC(F)F)cc2)c(F)c1 [Example 78, N-[1-(2,6-difluoro-4-methoxyphenyl)-4-[(pyridin-2-yl)methyl]-1H-imidazol-2-yl]-4-(difluoromethoxy)benzamide] | 0.056 | 0.87
3 | COc1cc(F)c(-n2cc(C(=O)N3CCC(CO)CC3)nc2NC(=O)c2ccc(OC(F)F)cc2)c(F)c1 [Example 69, N-[1-(2,6-difluoro-4-methoxyphenyl)-4-[4-(hydroxymethyl)piperidine-1-carbonyl]-1H-imidazol-2-yl]-4-(difluoromethoxy)benzamide] | 0.086 | 2.99
4 | COc1cc(F)c(-n2cc(-c3ccc(Cl)c(C)c3)nc2NC(=O)c2ccc(OC(F)F)cc2)c(F)c1 [Example 5, N-[4-(4-Chloro-3-methylphenyl)-1-(2,6-difluoro-4-methoxyphenyl)-1H-imidazol-2-yl]-4-(difluoromethoxy)benzamide] | 0.047 | 0.14
5 | COc1cc(F)c(-n2cc(C(=O)N3CCC(CO)C3)nc2NC(=O)c2ccc(OC(F)F)cc2)c(F)c1 (stereo not shown) [Example 59, N-[1-(2,6-Difluoro-4-methoxyphenyl)-4-[3-(hydroxymethyl)pyrrolidine-1-carbonyl]-1H-imidazol-2-yl]-4-(difluoromethoxy)benzamide] | 0.082 | 2.2
6 | COc1cc(F)c(-n2cc(C(=O)N3CCC(O)CC3)nc2NC(=O)c2ccc(OC(F)F)cc2)c(F)c1 [Example 52, N-[1-(2,6-Difluoro-4-methoxyphenyl)-4-(4-hydroxypiperidine-1-carbonyl)-1H-imidazol-2-yl]-4-(difluoromethoxy)benzamide] | 0.063 | > 10
7 | COc1cc(F)c(-n2cc(C(=O)N3CCC[C@H]3CO)nc2NC(=O)c2ccc(OC(F)F)cc2)c(F)c1 [Example 50, N-[1-(2,6-Difluoro-4-methoxyphenyl)-4-[(2S)-2-(hydroxymethyl)pyrrolidine-1-carbonyl]-1H-imidazol-2-yl]-4-(difluoromethoxy)benzamide] | 0.077 | > 10
8 | COc1cc(F)c(-n2cc(C(=O)NCc3cccnc3)nc2NC(=O)c2ccc(OC(F)F)cc2)c(F)c1 [Example 47, 1-(2,6-Difluoro-4-methoxyphenyl)-2-[4-(difluoromethoxy)benzamido]-N-[(pyridin-3-yl)methyl]-1H-imidazole-4-carboxamide] | 0.035 | 0.11
9 | COc1cc(F)c(-n2cc(C(=O)NCc3cc[nH]n3)nc2NC(=O)c2ccc(OC(F)F)cc2)c(F)c1 [Example 44, 1-(2,6-Difluoro-4-methoxyphenyl)-2-[4-(difluoromethoxy)benzamido]-N-[(1H-pyrazol-3-yl)methyl]-1H-imidazole-4-carboxamide] | 0.048 | 0.37
10 | COc1cc(F)c(-n2cc(C(=O)NCc3ccncc3)nc2NC(=O)c2ccc(OC(F)F)cc2)c(F)c1 [Example 48, 1-(2,6-Difluoro-4-methoxyphenyl)-2-[4-(difluoromethoxy)benzamido]-N-[(pyridin-4-yl)methyl]-1H-imidazole-4-carboxamide] | 0.11 | 0.6
11 | COc1cc(F)c(-n2cc(CC(C)C)nc2NC(=O)c2ccc(OC(F)F)cc2)c(F)c1 [Example 35, N-[1-(2,6-Difluoro-4-methoxyphenyl)-4-(2-methylpropyl)-1H-imidazol-2-yl]-4-(difluoromethoxy)benzamide] | 0.099 | 1.4
12 | COc1cc(F)c(-n2cc(C(=O)N3CCCC(O)C3)nc2NC(=O)c2ccc(OC(F)F)cc2)c(F)c1 (stereo not shown) [Example 51, N-[1-(2,6-Difluoro-4-methoxyphenyl)-4-(3-hydroxypiperidine-1-carbonyl)-1H-imidazol-2-yl]-4-(difluoromethoxy)benzamide] | 0.083 | 2.9

These reach a lower EC50 (human FPR2). Values come first.

Row | EC50 (human FPR2) [µM] | EC50 (human FPR1) [µM] | SMILES
13 | 0.027 | 0.23 | COc1cc(F)c(-n2cc(-c3ccc(C#N)cc3)nc2NC(=O)c2ccc(OC(F)F)cc2)c(F)c1 [Example 16, N-[4-(4-Cyanophenyl)-1-(2,6-difluoro-4-methoxyphenyl)-1H-imidazol-2-yl]-4-(difluoromethoxy)benzamide]
14 | 0.026 | 0.23 | COc1cc(F)c(-n2cc(C3CCOCC3)nc2NC(=O)c2ccc(OC(F)F)cc2)c(F)c1 [Example 41, N-[1-(2,6-Difluoro-4-methoxyphenyl)-4-(oxan-4-yl)-1H-imdiazol-2-yl]-4-(difluoromethoxy)benzamide]
15 | 0.022 | 0.47 | CCOC(=O)Cc1cn(-c2c(F)cc(OC)cc2F)c(NC(=O)c2ccc(OC(F)F)cc2)n1 [Example 72, ethyl 2-[1-(2,6-difluoro-4-methoxyphenyl)-2-[4-(difluoromethoxy)benzamido]-1H-imidazol-4-yl]acetate]
16 | 0.016 | 0.12 | COc1cc(F)c(-n2cc(-c3ccnc(Cl)c3)nc2NC(=O)c2ccc(OC(F)F)cc2)c(F)c1 [Example 34, N-[4-(2-Chloropyridin-4-yl)-1-(2,6-difluoro-4-methoxyphenyl)-1H-imidazol-2-yl]-4-(difluoromethoxy)benzamide]
17 | 0.015 | 0.032 | CCOC(=O)c1cc(-c2cn(-c3ccc(OC)cc3)c(NC(=O)c3ccc(OC(F)F)cc3)n2)on1 [Example 29, Ethyl 5-{2-[4-(difluoromethoxy)benzamido]-1-(4-methoxyphenyl)-1H-imidazol-4-yl}-1,2-oxazole-3-carboxylate]
18 | 0.014 | 0.71 | COc1ccc(-n2cc(C(=O)N3CCNCC3)nc2NC(=O)c2ccc(OC(F)F)cc2)cc1 [Example 45, 4-(Difluoromethoxy)-N-[1-(4-methoxyphenyl)-4-(piperazine-1-carbonyl)-1H-imidazol-2-yl]benzamide]
19 | 0.011 | 1 | COc1cc(F)c(-n2cc(-c3nccs3)nc2NC(=O)c2ccc(OC(F)F)cc2)c(F)c1 [Example 40, N-[1-(2,6-Difluoro-4-methoxyphenyl)-4-(1,3-thiazol-2-yl)-1H-imidazol-2-yl]-4-(difluoromethoxy)benzamide]
20 | 0.009 | 0.1 | CCOC(=O)c1cn(-c2ccc(OC)cc2)c(NC(=O)c2ccc(OC(F)F)cc2)n1 [Example 30, Ethyl 2-[4-(difluoromethoxy)benzamido]-1-(4-methoxyphenyl)-1H-imidazole-4-carboxylate]
21 | 0.008 | 0.23 | COc1cc(F)c(-n2c(NC(=O)c3ccc(OC(F)F)cc3)nc(-c3ccccc3)c2C)c(F)c1 [Example 8, N-[1-(2,6-Difluoro-4-methoxyphenyl)-5-methyl-4-phenyl-1H-imidazol-2-yl]-4-(difluoromethoxy)benzamide]
22 | 0.007 | 0.2 | COc1cc(F)c(-n2cc(-c3cccc(F)c3)nc2NC(=O)c2ccc(OC(F)F)cc2)c(F)c1 [Example 10, N-[1-(2,6-Difluoro-4-methoxyphenyl)-4-(3-fluorophenyl)-1H-imidazol-2-yl]-4-(difluoromethoxy)benzamide]
23 | 0.005 | 0.046 | COc1cc(F)c(-n2cc(-c3cccc(C#N)c3)nc2NC(=O)c2ccc(OC(F)F)cc2)c(F)c1 [Example 17, N-[4-(3-Cyanophenyl)-1-(2,6-difluoro-4-methoxyphenyl)-1H-imidazol-2-yl]-4-(difluoromethoxy)benzamide]
